In US20240238242A1, “EGCG buccal tablet and use thereof” (priority 2023, published 2024):
Read-outs that look alike come from different tables or passages of the source.

Tested on: Influenza A H3N2 virus (H3N2)
Type: cell-based

O=C(O[C@@H]1Cc2c(O)cc(O)cc2O[C@@H]1c1cc(O)c(O)c(O)c1)c1cc(O)c(O)c(O)c1 [EGCG, Epigallocatechin gallate]
CPE test, virus replication in cell wells (wells 1-10) (0.2 mM EGCG + H3N2 virus, 1 minute, first experiment, dilution factor 10^1): +
CPE test, virus replication in cell wells (wells 1-10) (0.2 mM EGCG + H3N2 virus, 1 minute, first experiment, dilution factor 10^2): +
CPE test, virus replication in cell wells (wells 1-10) (0.2 mM EGCG + H3N2 virus, 1 minute, first experiment, dilution factor 10^3): +
CPE test, virus replication in cell wells (wells 1-10) (0.2 mM EGCG + H3N2 virus, 1 minute, first experiment, dilution factor 10^4): +
CPE test, virus replication in cell wells (wells 1-10) (0.2 mM EGCG + H3N2 virus, 1 minute, first experiment, dilution factor 10^5): + and −
CPE test, virus replication in cell wells (wells 1-10) (0.2 mM EGCG + H3N2 virus, 1 minute, first experiment, dilution factor 10^6): −
CPE test, virus replication in cell wells (wells 1-10) (0.2 mM EGCG + H3N2 virus, 1 minute, first experiment, dilution factor 10^7): −
CPE test, virus replication in cell wells (wells 1-10) (0.2 mM EGCG + H3N2 virus, 1 minute, first experiment, dilution factor 10^8): −
CPE test, virus replication in cell wells (wells 1-10) (0.2 mM EGCG + H3N2 virus, 1 minute, second experiment, dilution factor 10^1): +
CPE test, virus replication in cell wells (wells 1-10) (0.2 mM EGCG + H3N2 virus, 1 minute, second experiment, dilution factor 10^2): +
CPE test, virus replication in cell wells (wells 1-10) (0.2 mM EGCG + H3N2 virus, 1 minute, second experiment, dilution factor 10^3): +
CPE test, virus replication in cell wells (wells 1-10) (0.2 mM EGCG + H3N2 virus, 1 minute, second experiment, dilution factor 10^4): +
CPE test, virus replication in cell wells (wells 1-10) (0.2 mM EGCG + H3N2 virus, 1 minute, second experiment, dilution factor 10^5): + and −
CPE test, virus replication in cell wells (wells 1-10) (0.2 mM EGCG + H3N2 virus, 1 minute, second experiment, dilution factor 10^6): −
CPE test, virus replication in cell wells (wells 1-10) (0.2 mM EGCG + H3N2 virus, 1 minute, second experiment, dilution factor 10^7): −
CPE test, virus replication in cell wells (wells 1-10) (0.2 mM EGCG + H3N2 virus, 1 minute, second experiment, dilution factor 10^8): −
CPE test, virus replication in cell wells 1-10 (0.2 mM EGCG + H3N2 virus, 1 minute, third experiment, dilution factor 10^1): +
CPE test, virus replication in cell wells 1-10 (0.2 mM EGCG + H3N2 virus, 1 minute, third experiment, dilution factor 10^2): +
CPE test, virus replication in cell wells 1-10 (0.2 mM EGCG + H3N2 virus, 1 minute, third experiment, dilution factor 10^3): +
CPE test, virus replication in cell wells 1-10 (0.2 mM EGCG + H3N2 virus, 1 minute, third experiment, dilution factor 10^4): +
CPE test, virus replication in cell wells 1-10 (0.2 mM EGCG + H3N2 virus, 1 minute, third experiment, dilution factor 10^5): + and −
CPE test, virus replication in cell wells 1-10 (0.2 mM EGCG + H3N2 virus, 1 minute, third experiment, dilution factor 10^6): −
CPE test, virus replication in cell wells 1-10 (0.2 mM EGCG + H3N2 virus, 1 minute, third experiment, dilution factor 10^7): −
CPE test, virus replication in cell wells 1-10 (0.2 mM EGCG + H3N2 virus, 1 minute, third experiment, dilution factor 10^8): −
CPE test, virus replication in cell wells 1-10 (0.2 mM EGCG + H3N2 virus, 5 minute, first experiment, dilution factor 10^1): +
CPE test, virus replication in cell wells 1-10 (0.2 mM EGCG + H3N2 virus, 5 minute, first experiment, dilution factor 10^2): +
CPE test, virus replication in cell wells 1-10 (0.2 mM EGCG + H3N2 virus, 5 minute, first experiment, dilution factor 10^3): +
CPE test, virus replication in cell wells 1-10 (0.2 mM EGCG + H3N2 virus, 5 minute, first experiment, dilution factor 10^4): +
CPE test, virus replication in cell wells 1-10 (0.2 mM EGCG + H3N2 virus, 5 minute, first experiment, dilution factor 10^5): + and −
CPE test, virus replication in cell wells 1-10 (0.2 mM EGCG + H3N2 virus, 5 minute, first experiment, dilution factor 10^6): −
CPE test, virus replication in cell wells 1-10 (0.2 mM EGCG + H3N2 virus, 5 minute, first experiment, dilution factor 10^7): −
CPE test, virus replication in cell wells 1-10 (0.2 mM EGCG + H3N2 virus, 5 minute, first experiment, dilution factor 10^8): −
CPE test, virus replication in cell wells 1-10 (0.2 mM EGCG + H3N2 virus, 5 minute, second experiment, dilution factor 10^1): +
CPE test, virus replication in cell wells 1-10 (0.2 mM EGCG + H3N2 virus, 5 minute, second experiment, dilution factor 10^2): +
CPE test, virus replication in cell wells 1-10 (0.2 mM EGCG + H3N2 virus, 5 minute, second experiment, dilution factor 10^3): +
CPE test, virus replication in cell wells 1-10 (0.2 mM EGCG + H3N2 virus, 5 minute, second experiment, dilution factor 10^4): +
CPE test, virus replication in cell wells 1-10 (0.2 mM EGCG + H3N2 virus, 5 minute, second experiment, dilution factor 10^5): − and +
CPE test, virus replication in cell wells 1-10 (0.2 mM EGCG + H3N2 virus, 5 minute, second experiment, dilution factor 10^6): −
CPE test, virus replication in cell wells 1-10 (0.2 mM EGCG + H3N2 virus, 5 minute, second experiment, dilution factor 10^7): −
CPE test, virus replication in cell wells 1-10 (0.2 mM EGCG + H3N2 virus, 5 minute, second experiment, dilution factor 10^8): −
residual virus titer of EGCG+virus group (Karber method) (0.2 mM EGCG, H3N2 virus, 1 minute): 10^5 TCID50/50 μL
average inactivation efficiency against virus (0.2 mM EGCG, H3N2 virus, 1 minute, three experiments): 28.93%
inactivation efficiency against the virus (0.2 mM EGCG, H3N2 virus, 5 minutes, single experiment): 84.15%
average inactivation efficiency against virus (0.2 mM EGCG, H3N2 virus, 5 minutes, two experiments): 76.27%
CPE test, virus replication in cell wells (wells 1-10) (1 mM EGCG + H3N2 virus, 1 minute, first experiment, dilution factor 10^2): +
CPE test, virus replication in cell wells (wells 1-10) (1 mM EGCG + H3N2 virus, 1 minute, first experiment, dilution factor 10^3): +
CPE test, virus replication in cell wells (wells 1-10) (1 mM EGCG + H3N2 virus, 1 minute, first experiment, dilution factor 10^4): +
CPE test, virus replication in cell wells (wells 1-10) (1 mM EGCG + H3N2 virus, 1 minute, first experiment, dilution factor 10^5): + and −
CPE test, virus replication in cell wells (wells 1-10) (1 mM EGCG + H3N2 virus, 1 minute, first experiment, dilution factor 10^6): −
CPE test, virus replication in cell wells (wells 1-10) (1 mM EGCG + H3N2 virus, 1 minute, first experiment, dilution factor 10^7): −
CPE test, virus replication in cell wells (wells 1-10) (1 mM EGCG + H3N2 virus, 1 minute, first experiment, dilution factor 10^8): −
CPE test, virus replication in cell wells (wells 1-10) (1 mM EGCG + H3N2 virus, 1 minute, second experiment, dilution factor 10^1): +
CPE test, virus replication in cell wells (wells 1-10) (1 mM EGCG + H3N2 virus, 1 minute, second experiment, dilution factor 10^2): +
CPE test, virus replication in cell wells (wells 1-10) (1 mM EGCG + H3N2 virus, 1 minute, second experiment, dilution factor 10^3): +
CPE test, virus replication in cell wells (wells 1-10) (1 mM EGCG + H3N2 virus, 1 minute, second experiment, dilution factor 10^4): + and −
CPE test, virus replication in cell wells (wells 1-10) (1 mM EGCG + H3N2 virus, 1 minute, second experiment, dilution factor 10^5): + and −
